In ChEMBL document CHEMBL3826930, “Antitumor activities of biscoumarin and dihydropyran derivatives” (Bioorg Med Chem Lett, 2016):
In brackets after ≈: the same amount, converted by molar mass.

Tests used:
Mus musculus [1] = assay: Acute toxicity in Kunming mouse assessed as sleep pattern abnormality at 500 mg/kg, administered as single dose after 14 days; assay type: organism-based; conditions: in vivo, 336 h
Mus musculus [2] = assay: Acute toxicity in Kunming mouse assessed as structural abnormality in liver at 500 mg/kg, administered as single dose after 14 days by hematoxylin and eosin staining based histological analysis; assay type: organism-based; conditions: in vivo, 336 h
Mus musculus [3] = assay: Acute toxicity in Kunming mouse assessed as structural abnormality in kidney at 500 mg/kg, administered as single dose after 14 days by hematoxylin and eosin staining based histological analysis; assay type: organism-based; conditions: in vivo, 336 h
[4] = Antiproliferative activity against human HuTu 80 cells after 48 hrs by MTT assay; assay type: functional, cell-based; conditions: HuTu80, 48 h
4T1 [5] = assay: Antiproliferative activity against mouse 4T1 cells after 48 hrs by MTT assay; assay type: functional, cell-based; conditions: 4T1, 48 h
[6] = Antiproliferative activity against human PANC1 cells after 48 hrs by MTT assay; assay type: functional, cell-based; conditions: PANC-1, 48 h
[7] = (§1) Cytotoxicity against HUVEC assessed as reduction in cell survival after 48 hrs by MTT assay; assay type: cell-based, Homo sapiens; conditions: human, HUVEC cells
HUVEC = assay: as §1; assay type: cell-based, Homo sapiens; conditions: Homo sapiens, HUVEC, 48 h
[8] = (§2) Cytotoxicity against HEK293 cells assessed as reduction in cell survival after 48 hrs by MTT assay; assay type: cell-based, Homo sapiens; conditions: human, HEK293 cells
HEK293 [9] = assay: as §2; assay type: cell-based, Homo sapiens; conditions: Homo sapiens, HEK293, 48 h
HuTu80 [10] = assay: Selectivity index, ratio of IC50 for HUVEC to IC50 for human HuTu 80 cells
4T1 [11] = assay: Selectivity index, ratio of IC50 for HUVEC to IC50 for mouse 4T1 cells
PANC-1 = assay: Selectivity index, ratio of IC50 for HUVEC to IC50 for human PANC1 cells
HEK293 [12] = assay: Selectivity index, ratio of IC50 for HEK293 cells to IC50 for human HuTu 80 cells; assay type: functional
HEK293 [13] = assay: Selectivity index, ratio of IC50 for HEK293 cells to IC50 for mouse 4T1 cells; assay type: functional
HEK293 [14] = assay: Selectivity index, ratio of IC50 for HEK293 cells to IC50 for human PANC1 cells; assay type: functional
HuTu80 [15] = assay: Induction of apoptosis in human HuTu 80 cells assessed as live cells at 3 ug/ml after 48 hrs by Annexin V/propidium iodide staining based flow cytometry (reference value: 92.5%); assay type: functional
HuTu80 [16] = assay: Induction of apoptosis in human HuTu 80 cells assessed as early apoptotic cells at 3 ug/ml after 48 hrs by Annexin V/propidium iodide staining based flow cytometry (reference value: 0.5%); assay type: functional
HuTu80 [17] = assay: Induction of apoptosis in human HuTu 80 cells assessed as late apoptotic cells at 3 ug/ml after 48 hrs by Annexin V/propidium iodide staining based flow cytometry (reference value: 1.6%); assay type: functional
HuTu80 [18] = assay: Induction of apoptosis in human HuTu 80 cells assessed as necrotic cells at 3 ug/ml after 48 hrs by Annexin V/propidium iodide staining based flow cytometry (reference value: 5.3%); assay type: functional
[19] = Cell cycle arrest in human HuTu 80 cells assessed as accumulation at subG1 phase at 3 ug/ml after 48 hrs by propidium iodide staining based flow cytometry (reference value: 2.27 to 2.3%); assay type: functional; conditions: HuTu80
[20] = Cell cycle arrest in human HuTu 80 cells assessed as accumulation at G1 phase at 3 ug/ml after 48 hrs by propidium iodide staining based flow cytometry (reference value: 43.3 to 43.32%); assay type: functional; conditions: HuTu80
[21] = Cell cycle arrest in human HuTu 80 cells assessed as accumulation at S phase at 3 ug/ml after 48 hrs by propidium iodide staining based flow cytometry (reference value: 15.79 to 15.8%); assay type: functional; conditions: HuTu80
[22] = Cell cycle arrest in human HuTu 80 cells assessed as accumulation at G2/M phase at 3 ug/ml after 48 hrs by propidium iodide staining based flow cytometry (reference value: 23.2%); assay type: functional; conditions: HuTu80
Mus musculus [23] = assay: Acute toxicity in Kunming mouse assessed as survival at 500 mg/kg, administered as single dose measured on day 14 post dose; assay type: organism-based; conditions: in vivo
Mus musculus [24] = assay: Acute toxicity in Kunming mouse assessed as physical/abnormal changes in skin at 500 mg/kg, administered as single dose after 14 days; assay type: organism-based; conditions: in vivo, 336 h
Mus musculus [25] = assay: Acute toxicity in Kunming mouse assessed as physical/abnormal changes in fur at 500 mg/kg, administered as single dose after 14 days; assay type: organism-based; conditions: in vivo, 336 h
Mus musculus [26] = assay: Acute toxicity in Kunming mouse assessed as physical/abnormal changes in eyes at 500 mg/kg, administered as single dose after 14 days; assay type: organism-based; conditions: in vivo, 336 h
Mus musculus [27] = assay: Acute toxicity in Kunming mouse assessed as physical/abnormal changes in mucus membrane at 500 mg/kg, administered as single dose after 14 days; assay type: organism-based; conditions: in vivo, 336 h
Mus musculus [28] = assay: Acute toxicity in Kunming mouse assessed as tremor induction at 500 mg/kg, administered as single dose after 14 days; assay type: organism-based; conditions: in vivo, 336 h
Mus musculus [29] = assay: Acute toxicity in Kunming mouse assessed as induction of salivation at 500 mg/kg, administered as single dose after 14 days; assay type: organism-based; conditions: in vivo, 336 h
Mus musculus [30] = assay: Acute toxicity in Kunming mouse assessed as behavior pattern abnormality at 500 mg/kg, administered as single dose after 14 days; assay type: organism-based; conditions: in vivo, 336 h

O=c1oc2ccccc2c(O)c1C(c1ccc(F)c(F)c1)c1c(O)c2ccccc2oc1=O
Activity (Mus musculus [1]): Non-toxic | Activity (Mus musculus [2]): Non-toxic | Activity (Mus musculus [3]): Non-toxic | IC50 [4]: 15 µg/mL (≈ 33.5 µM) | IC90 [4]: 28 µg/mL (≈ 62.4 µM) | IC50 (4T1 [5]): 47.9 µg/mL (≈ 107 µM) | IC90 (4T1 [5]): 98.4 µg/mL (≈ 219 µM) | IC50 [6]: 82.4 µg/mL (≈ 184 µM) | IC90 [6]: 155 µg/mL (≈ 346 µM) | IC90 at 48 h [7]: 276 µg/mL (≈ 616 µM) | IC50 (HUVEC): 112 µg/mL (≈ 251 µM) | IC90 at 48 h [8]: 221 µg/mL (≈ 492 µM) | IC50 (HEK293 [9]): 107 µg/mL (≈ 239 µM) | Ratio IC50 (HuTu80 [10]): 7.5 | Ratio IC50 (4T1 [11]): 2.3 | Ratio IC50 (PANC-1): 1.36 | Ratio IC50 (HEK293 [12]): 7.1 | Ratio IC50 (HEK293 [13]): 2.2 | Ratio IC50 (HEK293 [14]): 1.3 | Activity (HuTu80 [15]): 88% | Activity (HuTu80 [16]): 1.2% | Activity (HuTu80 [17]): 3.2% | Activity (HuTu80 [18]): 7.5% | Activity [19]: 25.1% | Activity [20]: 26.1% | Activity [21]: 18.5% | Activity [22]: 15.3% | Activity (Mus musculus [23]): Non-toxic | Activity (Mus musculus [24]): Non-toxic | Activity (Mus musculus [25]): Non-toxic | Activity (Mus musculus [26]): Non-toxic | Activity (Mus musculus [27]): Non-toxic | Activity (Mus musculus [28]): Non-toxic | Activity (Mus musculus [29]): Non-toxic | Activity (Mus musculus [30]): Non-toxic
